Assay results from article PMC10447463, “Data-mining unveils structure–property–activity correlation of viral infectivity enhancing self-assembling peptides” (Nature Communications, 2023).
Where “and” joins values, the source holds several entries; their conditions need not be identical. Equal values may be shown once. Read-outs that look alike come from different tables or passages of the source.

Experiments:
[1] = system: HIV-1 infection of TZM-bl cells; experiment: HIV-1 infectivity enhancement assay, β-galactosidase luminescence; type: cell-based; settings: for Rel-EFC: infection relative to EF-C (QCKIKQIINMWQ = 1); for Log10 Infection Rel EFC: log10 of infection relative to EF-C; for Rel-to EFC (Feb-2021): n-fold infectivity relative to EF-C; for Log Infectivity: Log10 infection relative to EF-C, TZM-bl cells; for Log10 Infection Rel EF-C: HIV-1 infection of TZM-bl cells; for Abs. Inf.: absolute infection signal, HIV-1 on TZM-bl cells, β-galactosidase luminescence
[2] = Zeta-potential measurement; type: physicochemical
Outline: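 PBS pH 7.4, 1 mg/mL peptide (DMSO stock), 1 d RT aggregation; diluted in 1 mM KCl pre-read; mobility → zeta (Smoluchowski); n = 3, 2 expts averaged.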

[3] = β-sheet content by ATR-FT-IR; type: physicochemical; settings: for b -sheet / %: Fig. S7 panel A, β-sheet content by ATR-FT-IR
Outline: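 Measurements on freeze-dried PNF powders used a diamond ATR element, 64 scans each, with β-sheet fraction derived as previously reported. CR reflects loss of fluorescamine-reactive monomer after 3 kDa ultrafiltration, averaged over triplicates.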

[4] = Turbidity, derived count rate of scattered light; type: physicochemical; settings: for Log Count Rate: log of derived count rate; for Count Rate / kcps: derived count rate of scattered light at 633 nm, 173°, from zeta-potential measurement, 0.1 mg/mL in 1 mM KCl after 1 d at 1 mg/mL in PBS, turbidity / microscopic aggregation, mean of triplicate
Outline: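 One-day room-temperature aggregation at 1 mg/mL in PBS (pH 7.4) preceded measurement; samples then went into 1 mM KCl. Triplicates per sample, two independent experiments averaged.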

[5] = Turbidity, derived count rate of scattered light; type: physicochemical; settings: for Count Rate: derived count rate of scattered light (turbidity); for Log10 Count Rate: turbidity, derived count rate of scattered light, data of Figure 2D
[6] = Fig. S7 panel A (plotted against β-sheet content), asymmetric std dev errors
[7] = Log10 of infection rate relative to EF-C, Figure 3A source data
[8] = infection rate relative to EF-C, log10, data of Figure 2D
[9] = infection rate relative to EF-C, log10, source data of Figure 2C
[10] = Log10 of infection relative to EF-C, all peptides of FigS16
[11] = log10 of HIV-1 infection of TZM-bl cells relative to EF-C (EF-C = 0)
[12] = zeta-potential of peptide, source data of Figure 2C
[13] = zeta-potential of the peptide assemblies, mean, Figure 3A source data
[14] = Log10 of derived count rate of scattered light (turbidity)
[15] = turbidity, Log10 of derived count rate of scattered light, Figure 3A source data
[16] = turbidity, log10 of derived count rate of scattered light
[17] = zeta potential of peptide assemblies

QCKIKQIINMWQ [reference compound]
Rel-EFC ([1]; 1.3 µM peptide): 1 | n-fold infectivity enhancement compared to virus-only infectivity ([1]; 1.3 µM peptide, listed as EF-C): 42 ± 7 | Log10 Infection Rel EFC ([1]; 1.3 µM peptide): 0 | Absolute Infectivity / RLU /s (Feb2021) ([1]; Feb2021, figures match the 1.3 µM column): 21312.22222 RLU /s | n-fold to virus (Feb2021) ([1]; Feb2021, infectivity relative to virus only): 42.02 | Rel-to EFC (Feb-2021) ([1]; Feb2021): 1 | n-fold to virus (Feb2021) ([1]; Feb2021 run, infectivity n-fold relative to virus alone): 42.02 | Log10 of Rel to EFC (Feb2021) ([1]; Feb2021 run, log10 of infectivity relative to EF-C): 0 | Rel-to EFC (Feb-2021) ([1]; Feb2021 run): 1 | Rel-to EFC ([1]; Fig S8 panels B, D, infectivity enhancement relative to EF-C): 1 | n-fold to virus ([1]; Fig S8 panels B, D, infectivity n-fold relative to virus alone): 42.02 | Log Infectivity [1, 6]: 0 | Log Infectivity ([1]; Fig. S7 panel B (plotted against CR), rounded to two decimals, asymmetric std dev errors): 0 | Log10 Infection Rel EF-C [1, 7]: 0 | Log10 Infection Rel EF-C [1, 8]: 0 | Log10 Infection Rel EF-C [1, 9]: 0 | Log10 of Rel to EFC (Feb2021) [1, 10]: 0 | Abs. Inf. [1]: 21312.22222 | infectivity ([1]; infectivity class (low / medium / high) of the peptide in the sequence-pattern analysis, Fig. S22-A4, class limits not given): high | Log10 Inf. rel. to EF-C [1, 11]: 0 | Log10 Inf. rel. to EF-C ([1]; log10 of HIV-1 infection of TZM-bl cells relative to EF-C, Fig S15 source data, asymmetric std dev errors): 0 | Abs Infection at 0.26µM ([1]; peptide 0.26 µM, mean of n = 3, Figure 7A): 39053.33333 | Abs Infection at 1.3 µM ([1]; peptide 1.3 µM, mean of n = 3, Figure 7A): 101036.6667 | Abs Infection at 6.5 µM ([1]; peptide 6.5 µM, mean of n = 3, Figure 7A): 141063.3333 | Zeta Pot. / mV [2]: 6.643 mV | Zeta category ( +1 = if > 4 mV;-1 = if < -4 mV; 0 = -4mV to 4 mV) [2]: 1 (+1 = if > 4 mV) | Zeta-Pot. [2]: 6.643 | Zeta category ( +1 = if > 4 mV;-1 = if < -4 mV; 0 = -4mV to 4 mV) ([2]; category from zeta potential): 1 (+1 = if > 4 mV) | Zeta Pot. / mV ([2]; mean, Std Zeta in next column): 6.643 mV | Zeta Pot. / mV ([2]; mean, Std in separate column): 6.643 mV | Zeta-pot. / mV ([2]; zeta potential of peptide, Fig S15 source data): 6.643 mV | Zeta-Potential / mV [2, 12]: 7.192 mV | Zeta-Potential / mV [2, 13]: 6.64 mV | FTIR ß-sheet content/ % [3]: 39.05% | FTIR ß-sheet content/ % ([3]; ATR-FT-IR, listed as EF-C): 39% and 39.05% | b -sheet / % [3]: 51.73% | Log Count Rate ([4]; Fig S8 panels A, C, asymmetric log errors): 3.415 | Log Count Rate ([4]; Fig S8 panels B, D): 3.415 | Count Rate ([4]; Fig S8 panels B, D, turbidity, derived count rate of scattered light): 2602.27 | Log10 Count Rate [4, 14]: 3.415 | Zeta Count Rate Category ([4]; category 1 / 0, no key given): 1 | Zeta Count Rate Category ([4]; category 1 or 0 from count rate, key not given): 1 | Zeta Count Rate / kcps ([4]; derived count rate of scattered light): 2602 kcps | Count Rate / kcps [4]: 2606 kcps | Zeta Count Rate / kcps ([4]; derived count rate of scattered light, mean, std deviation in next column): 2602 kcps | Zeta Count Rate / kcps ([4]; derived count rate of scattered light, mean, std deviation in separate column): 2602 kcps | Log10 Count Rate ([4]; logarithm of count rate in kcps): 3.415 | Log10 Count Rate [4, 15]: 3.415 | Log10 Count Rate [4, 16]: 3.415 | Count Rate [5]: 2602 | Log10 Count Rate [5]: 3.415

KYKYQY
Rel-EFC ([1]; 1.3 µM peptide): 0,01 | Log10 Infection Rel EFC ([1]; 1.3 µM peptide): -1,99 | Log Infectivity [1, 6]: -1.9887 | Log10 Infection Rel EF-C [1, 7]: -1.99 | Log10 Infection Rel EF-C [1, 8]: -1.9887 | Log10 Infection Rel EF-C [1, 9]: -1.9887 | Zeta-Pot. [2, 17]: -4.2 | Zeta-Potential / mV [2, 12]: -3.008 mV | Zeta-Potential / mV [2, 13]: -4.2 mV | b -sheet / % [3]: 0% | Log10 Count Rate [4, 14]: 1.499 | Count Rate / kcps [4]: 32 kcps | Log10 Count Rate ([4]; log10 of derived count rate of scattered light (turbidity)): 1.499 | Log10 Count Rate [4, 15]: 1.499 | Count Rate [5]: 31.53 | Log10 Count Rate [5]: 1.499

KIKIQINAWQ
Rel-EFC ([1]; 1.3 µM peptide): 0,54 | Log10 Infection Rel EFC ([1]; 1.3 µM peptide): -0,27 | Log Infectivity [1, 6]: -0.2703 | Log10 Infection Rel EF-C [1, 7]: -0.27 | Log10 Infection Rel EF-C [1, 8]: -0.2703 | Log10 Infection Rel EF-C [1, 9]: -0.2703 | Log10 of Rel to EFC (Feb2021) [1, 10]: -0.27 | Log10 Inf. rel. to EF-C [1, 11]: -0.2703 | Zeta-Pot. [2, 17]: 13.1 | Zeta-Potential / mV [2, 12]: 13.72 mV | Zeta-Potential / mV [2, 13]: 13.1 mV | b -sheet / % [3]: 27.74% | Log10 Count Rate [4, 14]: 3.174 | Count Rate / kcps [4]: 1494 kcps | Log10 Count Rate [4, 15]: 3.174 | Log10 Count Rate [4, 16]: 3.174 | Count Rate [5]: 1494 | Log10 Count Rate [5]: 3.174

QCKIKQII
Rel-EFC ([1]; 1.3 µM peptide): 0,01 | Log10 Infection Rel EFC ([1]; 1.3 µM peptide): -2,19 | Log Infectivity [1, 6]: -2.189 | Log10 Infection Rel EF-C [1, 7]: -2.19 | Log10 Infection Rel EF-C [1, 8]: -2.189 | Log10 Infection Rel EF-C [1, 9]: -2.189 | Abs. Inf. [1]: 206.7 | Log10 Inf. rel. to EF-C [1, 11]: -2.189 | Zeta-Pot. [2]: 11 | Zeta-Potential / mV [2, 12]: 9.183 mV | Zeta-Potential / mV [2, 13]: 11 mV | b -sheet / % [3]: 40.51% | Log10 Count Rate [4, 14]: 2.479 | Count Rate / kcps [4]: 301 kcps | Log10 Count Rate [4, 15]: 2.479 | Log10 Count Rate [4, 16]: 2.479 | Count Rate [5]: 301 | Log10 Count Rate [5]: 2.479
